The record followed here is patent US11331299B2, “Medicinal use of serrulatane diterpenes” (The University of Sydney, priority 2016, dated 2022).

The structures appear in SMILES notation. Read-outs that look alike come from different tables or passages of the source.

In series [1] the target is T1, CYP2C9 (Homo sapiens, UniProt P11712).
T1 construct: Human liver microsomes; from tissue; host or cells: human liver microsomes
Description: Cytochrome P450 Inhibition (CYP panel). Format: in vitro ADME. As to conditions: human liver microsomes, probe diclofenac; for inhibition at 10 µM: read-out: % Inhibition of Control Values. Background: Liver microsomes are vesicles of endoplasmic reticulum, rich in cytochrome P450 enzymes.

Series [2] addresses T2, USP 21 (h) (Homo sapiens, UniProt Q9UK80).
T2 sequence (Q9UK80 1-565): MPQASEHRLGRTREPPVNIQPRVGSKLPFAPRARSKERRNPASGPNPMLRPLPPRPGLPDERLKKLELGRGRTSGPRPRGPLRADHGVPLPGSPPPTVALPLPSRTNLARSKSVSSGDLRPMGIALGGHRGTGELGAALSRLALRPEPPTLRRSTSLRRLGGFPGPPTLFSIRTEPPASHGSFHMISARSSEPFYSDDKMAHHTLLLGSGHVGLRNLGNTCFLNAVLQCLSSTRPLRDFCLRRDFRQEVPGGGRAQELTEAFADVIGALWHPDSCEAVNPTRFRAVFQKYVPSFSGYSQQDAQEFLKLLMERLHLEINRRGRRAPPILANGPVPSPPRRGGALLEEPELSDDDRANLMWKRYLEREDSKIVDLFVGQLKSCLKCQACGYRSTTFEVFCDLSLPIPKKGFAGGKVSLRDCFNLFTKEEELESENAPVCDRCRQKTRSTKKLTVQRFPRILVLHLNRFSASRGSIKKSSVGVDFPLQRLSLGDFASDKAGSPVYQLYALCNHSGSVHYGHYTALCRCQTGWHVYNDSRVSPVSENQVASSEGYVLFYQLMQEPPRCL
As to the kind of experiment: Epigenetic enzyme assay, Ubiquitin modifying enzymes. As to conditions: 10 μM; read-out: % Inhibition of Control Values. Format: biochemical.

For series [3], the target named is T3, JMJD2D (h) (Homo sapiens, UniProt Q6B0I6).
T3 sequence (Q6B0I6 1-523): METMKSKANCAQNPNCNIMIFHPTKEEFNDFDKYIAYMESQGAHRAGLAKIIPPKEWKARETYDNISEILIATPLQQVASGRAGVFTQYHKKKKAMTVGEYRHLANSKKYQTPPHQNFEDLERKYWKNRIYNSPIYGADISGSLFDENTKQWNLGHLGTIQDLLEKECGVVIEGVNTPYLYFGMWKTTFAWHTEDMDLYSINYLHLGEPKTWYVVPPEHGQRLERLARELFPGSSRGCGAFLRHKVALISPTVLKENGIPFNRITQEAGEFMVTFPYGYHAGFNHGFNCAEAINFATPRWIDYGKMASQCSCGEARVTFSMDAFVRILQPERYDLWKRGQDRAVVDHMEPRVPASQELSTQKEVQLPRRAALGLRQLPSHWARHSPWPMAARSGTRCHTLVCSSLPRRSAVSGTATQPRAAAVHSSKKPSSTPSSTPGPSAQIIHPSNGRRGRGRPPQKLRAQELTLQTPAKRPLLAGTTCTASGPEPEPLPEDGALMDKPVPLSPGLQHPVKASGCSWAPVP
Description: Epigenetic enzyme assay, Demethylases (KDMs). It counts as biochemical. As to conditions: read-out: % Inhibition of Control Values.

Series [4] deals with Chemokine CXCR1/2 (IL-8, Non-Selective). Description: Chemokine CXCR1/2 (IL-8, Non-Selective) radio ligand binding. More on the design: species or system Human. As to conditions: 10 μM; assay year 2015. The procedure:
(§1) The in vitro pharmacological studies were conducted by Eurofins PanLab (Taiwan) using the parameters shown in Table 13 with respect to appropriate literature references.

The target in series [5] is DOT1L (h) (Homo sapiens, UniProt Q8TEK3). Description: Epigenetic enzyme assay, Methyltransferases (MTs). It counts as biochemical. As to conditions: read-out: % Inhibition of Control Values.
DOT1L (h), sequence (Q8TEK3 whole entry): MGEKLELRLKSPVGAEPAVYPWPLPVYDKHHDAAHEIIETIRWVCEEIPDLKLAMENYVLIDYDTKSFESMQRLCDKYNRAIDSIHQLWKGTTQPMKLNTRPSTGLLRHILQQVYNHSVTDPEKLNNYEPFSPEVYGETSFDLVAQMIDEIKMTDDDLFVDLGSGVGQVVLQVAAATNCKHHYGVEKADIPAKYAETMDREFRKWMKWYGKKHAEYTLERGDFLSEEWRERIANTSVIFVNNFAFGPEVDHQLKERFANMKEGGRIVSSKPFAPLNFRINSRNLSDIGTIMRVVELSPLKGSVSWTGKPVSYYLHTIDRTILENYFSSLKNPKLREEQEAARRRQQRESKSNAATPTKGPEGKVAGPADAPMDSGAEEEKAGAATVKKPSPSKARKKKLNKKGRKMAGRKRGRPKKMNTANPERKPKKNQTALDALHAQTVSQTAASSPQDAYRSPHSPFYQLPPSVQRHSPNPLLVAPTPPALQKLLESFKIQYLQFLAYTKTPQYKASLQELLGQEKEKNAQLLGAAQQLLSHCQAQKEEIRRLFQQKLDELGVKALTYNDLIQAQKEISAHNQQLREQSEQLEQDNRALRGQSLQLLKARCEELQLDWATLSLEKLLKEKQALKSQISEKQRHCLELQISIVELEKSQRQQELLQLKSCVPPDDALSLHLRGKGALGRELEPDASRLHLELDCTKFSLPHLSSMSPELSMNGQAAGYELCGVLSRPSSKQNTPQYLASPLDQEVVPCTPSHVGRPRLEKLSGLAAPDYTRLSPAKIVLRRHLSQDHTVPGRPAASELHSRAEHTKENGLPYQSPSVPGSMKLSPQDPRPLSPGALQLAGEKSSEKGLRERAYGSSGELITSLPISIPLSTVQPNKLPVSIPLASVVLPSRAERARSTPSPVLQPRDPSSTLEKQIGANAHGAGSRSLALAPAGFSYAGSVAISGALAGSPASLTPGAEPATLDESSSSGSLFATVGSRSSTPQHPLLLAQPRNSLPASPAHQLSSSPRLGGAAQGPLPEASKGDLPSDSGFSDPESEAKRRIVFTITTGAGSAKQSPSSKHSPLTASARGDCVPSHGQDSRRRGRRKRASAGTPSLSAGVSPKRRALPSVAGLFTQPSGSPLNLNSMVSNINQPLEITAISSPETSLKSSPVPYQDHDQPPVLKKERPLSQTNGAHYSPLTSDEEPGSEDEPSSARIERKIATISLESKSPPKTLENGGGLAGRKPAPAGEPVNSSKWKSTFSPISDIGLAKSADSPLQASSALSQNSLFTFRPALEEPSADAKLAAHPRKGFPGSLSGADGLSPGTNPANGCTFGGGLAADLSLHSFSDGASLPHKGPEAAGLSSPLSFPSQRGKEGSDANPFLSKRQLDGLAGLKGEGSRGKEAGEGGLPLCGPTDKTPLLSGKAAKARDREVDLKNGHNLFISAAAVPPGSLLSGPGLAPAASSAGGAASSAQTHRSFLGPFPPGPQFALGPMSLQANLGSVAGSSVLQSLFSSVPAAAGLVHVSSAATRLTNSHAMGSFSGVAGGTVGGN
Series [6] deals with SW480. As to the kind of experiment: OncoPanel cell proliferation assay (10-day). Format: cell-based, human. As to conditions: for EC50 / GI50 / IC50: Homo sapiens, SW480, Colon; for EC50: read-out: Cell Count EC50; for GI50: read-out: Cell Count GI50; for IC50: read-out: Cell Count IC50.
For series [7], the target named is PKBalpha/AKT1(h) (substrate histone H3 full length) (Homo sapiens, UniProt P31749). As to the kind of experiment: Epigenetic enzyme assay, Kinases. Format: biochemical. As to conditions: read-out: % Inhibition of Control Values.
PKBalpha/AKT1(h) (substrate histone H3 full length), sequence (P31749 whole entry): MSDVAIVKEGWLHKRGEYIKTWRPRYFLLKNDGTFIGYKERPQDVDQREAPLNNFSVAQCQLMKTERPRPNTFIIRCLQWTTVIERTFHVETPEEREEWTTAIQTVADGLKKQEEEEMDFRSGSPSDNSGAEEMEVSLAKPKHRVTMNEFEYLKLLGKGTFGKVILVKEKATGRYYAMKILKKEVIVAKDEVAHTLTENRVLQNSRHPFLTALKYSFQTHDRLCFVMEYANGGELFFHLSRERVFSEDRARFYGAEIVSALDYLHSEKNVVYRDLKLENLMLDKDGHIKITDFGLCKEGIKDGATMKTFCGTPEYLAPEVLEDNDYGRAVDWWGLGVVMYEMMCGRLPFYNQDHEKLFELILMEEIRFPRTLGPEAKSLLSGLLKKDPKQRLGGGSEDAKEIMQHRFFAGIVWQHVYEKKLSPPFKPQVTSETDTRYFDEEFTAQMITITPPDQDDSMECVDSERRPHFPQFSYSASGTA
Series [8] addresses PRMT3 (h) (Homo sapiens, UniProt O60678). Description: Epigenetic enzyme assay, Methyltransferases (MTs). Format: biochemical. As to conditions: for inhibition at 10 µM: read-out: % Inhibition of Control Values.
Series [9] concerns the target T4, TAF1(2)(h) bromodomain (Homo sapiens, UniProt P21675).
T4 construct: Bromodomain
T4 sequence (P21675 1519-1628 limits assumed): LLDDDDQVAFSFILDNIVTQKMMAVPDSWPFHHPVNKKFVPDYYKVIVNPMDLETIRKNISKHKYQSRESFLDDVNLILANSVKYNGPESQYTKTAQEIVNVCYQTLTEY
Description: Epigenetic binding assay, Bromodomain. The following applies: 10 μM; for inhibition at 10 µM: read-out: % Inhibition of Control Specific Binding.

Series [10] has as its system Catechol-O-Methyl Transferase (COMT). Description: Catechol-O-Methyl Transferase (COMT). Format: biochemical, Porcine. As to conditions: 10 μM; assay year 2015. The procedure: as §1
Series [11] addresses USP 16 (h) (Homo sapiens, UniProt Q9Y5T5). As to the kind of experiment: Epigenetic enzyme assay, Ubiquitin modifying enzymes. Format: biochemical. As to conditions: 10 μM; read-out: % Inhibition of Control Values.
Series [12] concerns the target T5, KAT2A (GCN5L2) (h) bromodomain (Homo sapiens, UniProt Q92830).
T5 construct: Bromodomain
T5 sequence (Q92830 728-832 limits assumed): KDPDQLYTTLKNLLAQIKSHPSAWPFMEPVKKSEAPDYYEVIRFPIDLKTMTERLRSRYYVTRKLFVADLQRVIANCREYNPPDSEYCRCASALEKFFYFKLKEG
As to the kind of experiment: Epigenetic binding assay, Bromodomain. The following applies: for inhibition at 10 µM: read-out: % Inhibition of Control Specific Binding.

In series [13] the target is T6, Histamine H2 (Homo sapiens, UniProt P25021).
T6 construct: expressed in transfected cells; host or cells: CHO-K1 cells
T6 sequence (P25021 whole entry): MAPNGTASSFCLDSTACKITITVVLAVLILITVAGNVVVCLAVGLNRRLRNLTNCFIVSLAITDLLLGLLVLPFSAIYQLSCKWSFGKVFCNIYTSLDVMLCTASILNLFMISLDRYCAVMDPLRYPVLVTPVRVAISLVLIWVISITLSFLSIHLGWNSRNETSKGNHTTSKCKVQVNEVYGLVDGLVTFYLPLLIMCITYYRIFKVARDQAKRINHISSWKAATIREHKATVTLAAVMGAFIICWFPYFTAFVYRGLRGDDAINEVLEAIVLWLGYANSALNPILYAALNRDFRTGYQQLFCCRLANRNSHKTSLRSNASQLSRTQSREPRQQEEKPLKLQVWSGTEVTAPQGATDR
As to the kind of experiment: Histamine H2 radio ligand binding. The procedure: as §1

For series [14], the target named is T7, PB1(2) (h) bromodomain (Homo sapiens, UniProt Q86U86).
T7 construct: Bromodomain
T7 sequence (Q86U86 177-287 limits assumed): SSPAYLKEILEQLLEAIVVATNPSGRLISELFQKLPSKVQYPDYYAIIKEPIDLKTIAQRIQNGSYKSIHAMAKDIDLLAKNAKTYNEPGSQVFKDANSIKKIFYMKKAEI
As to the kind of experiment: Epigenetic binding assay, Bromodomain. As to conditions: read-out: % Inhibition of Control Specific Binding.

Series [15] addresses T8, CBX4 (h) chromodomain (Homo sapiens, UniProt O00257).
T8 construct: Recognition and specificity determinants of the human cbx chromodomains; Eurofins CEREP (France), contract laboratory
T8 sequence (O00257 11-69 limits assumed): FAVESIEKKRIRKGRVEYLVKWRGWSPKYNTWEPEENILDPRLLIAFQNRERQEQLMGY
As to the kind of experiment: Epigenetic binding assay, Chromodomain. The following applies: read-out: % Inhibition of Control Specific Binding.

Series [16] addresses T9, SP140 (h) bromodomain (Homo sapiens, UniProt Q13342).
T9 construct: SP140 (h) bromodomain
As to the kind of experiment: Epigenetic binding assay, Bromodomain. On the set-up: inhibition of binding, 1st / inhibition of binding, 2nd / inhibition of binding, Mean: unit: %. The following applies: for inhibition at 10 µM: read-out: % Inhibition of Control Specific Binding.

Setting [17] is: Table 9, inhibition/concentration-response curve, read-out: IC50.
Setting [18] is: assay year 2014, read-out: % Control Response.
Setting [19] is: assay year 2015, read-out: % Control Response.

PRMT3 (h), sequence (O60678 whole entry): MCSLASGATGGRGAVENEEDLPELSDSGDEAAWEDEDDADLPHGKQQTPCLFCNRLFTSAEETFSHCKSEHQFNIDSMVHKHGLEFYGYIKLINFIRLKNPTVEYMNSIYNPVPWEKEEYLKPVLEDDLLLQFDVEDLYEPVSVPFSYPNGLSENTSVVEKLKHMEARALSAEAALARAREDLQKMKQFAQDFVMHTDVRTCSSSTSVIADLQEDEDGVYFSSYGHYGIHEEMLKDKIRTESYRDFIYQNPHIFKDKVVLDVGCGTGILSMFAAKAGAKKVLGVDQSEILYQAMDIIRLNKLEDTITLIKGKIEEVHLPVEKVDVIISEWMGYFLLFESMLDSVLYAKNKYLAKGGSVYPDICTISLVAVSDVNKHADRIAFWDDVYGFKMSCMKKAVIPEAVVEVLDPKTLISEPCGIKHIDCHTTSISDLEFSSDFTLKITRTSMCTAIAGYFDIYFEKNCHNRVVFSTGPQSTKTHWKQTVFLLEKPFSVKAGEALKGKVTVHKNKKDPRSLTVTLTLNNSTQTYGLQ
USP 16 (h), sequence (Q9Y5T5 whole entry): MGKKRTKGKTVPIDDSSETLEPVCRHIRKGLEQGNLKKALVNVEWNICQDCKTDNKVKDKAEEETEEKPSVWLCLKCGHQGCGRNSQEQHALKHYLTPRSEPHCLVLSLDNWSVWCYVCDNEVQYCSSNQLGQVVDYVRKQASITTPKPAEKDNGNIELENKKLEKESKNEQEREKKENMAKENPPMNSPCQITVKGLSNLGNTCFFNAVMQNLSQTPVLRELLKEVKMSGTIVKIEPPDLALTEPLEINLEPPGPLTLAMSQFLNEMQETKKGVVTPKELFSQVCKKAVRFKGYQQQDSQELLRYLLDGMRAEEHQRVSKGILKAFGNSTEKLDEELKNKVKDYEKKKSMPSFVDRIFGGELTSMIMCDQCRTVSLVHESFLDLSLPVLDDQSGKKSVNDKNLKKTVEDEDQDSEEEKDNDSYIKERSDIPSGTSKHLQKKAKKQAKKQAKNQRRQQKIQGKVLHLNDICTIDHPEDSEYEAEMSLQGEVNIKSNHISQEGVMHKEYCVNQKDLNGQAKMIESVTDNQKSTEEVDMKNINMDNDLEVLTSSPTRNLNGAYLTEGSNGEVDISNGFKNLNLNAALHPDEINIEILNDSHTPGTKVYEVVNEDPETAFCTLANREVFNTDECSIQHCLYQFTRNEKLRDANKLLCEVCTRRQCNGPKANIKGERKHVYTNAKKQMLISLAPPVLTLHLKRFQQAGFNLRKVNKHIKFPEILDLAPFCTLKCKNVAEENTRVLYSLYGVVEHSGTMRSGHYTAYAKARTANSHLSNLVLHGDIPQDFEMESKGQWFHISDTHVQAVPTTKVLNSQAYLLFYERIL
T1 sequence (P11712 whole entry): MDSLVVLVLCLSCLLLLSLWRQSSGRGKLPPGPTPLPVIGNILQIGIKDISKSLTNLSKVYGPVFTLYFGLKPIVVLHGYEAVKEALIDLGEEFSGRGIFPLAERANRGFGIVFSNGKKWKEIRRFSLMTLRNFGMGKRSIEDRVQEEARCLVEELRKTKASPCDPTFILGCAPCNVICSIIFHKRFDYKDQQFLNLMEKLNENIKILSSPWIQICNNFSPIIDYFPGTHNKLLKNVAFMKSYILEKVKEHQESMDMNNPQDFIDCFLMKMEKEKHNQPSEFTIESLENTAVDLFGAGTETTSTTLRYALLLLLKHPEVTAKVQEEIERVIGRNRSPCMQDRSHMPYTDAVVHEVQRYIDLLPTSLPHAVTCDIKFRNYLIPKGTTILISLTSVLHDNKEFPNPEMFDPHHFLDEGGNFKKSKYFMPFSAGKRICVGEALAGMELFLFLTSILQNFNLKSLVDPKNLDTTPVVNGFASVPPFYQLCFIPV
T9 sequence (Q13342 754-857 limits assumed): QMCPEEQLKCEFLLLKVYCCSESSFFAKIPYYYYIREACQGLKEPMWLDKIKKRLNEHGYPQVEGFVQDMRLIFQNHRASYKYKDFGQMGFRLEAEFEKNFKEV

Turning to `CC(C)=CCC[C@H](CO)[C@@H]1CC[C@@H](C)c2c1cc(C)c(O)c2O` [Compound 1, 7,8,18-trihydroxyserrulat-14-ene], the inhibition at 1 µM in series [1] amounted to 5%. Besides, the inhibition at 10 µM in [1] was 77%; in series [2], -18%; in series [3], 36%; in series [5], -5%; in [7], -1%; in series [8], 22%. In addition, the inhibition at 10 µM in [9] amounted to 62%; in series [11] it was 11%; in series [12] (10 μM) it was 76%; in [14], 31%; in [15] it was 25%; in series [16] (10 μM), 84%. Further, the figures for the “% Control Response” value in series [4] and in series [10] were 30% and 0%, respectively. In addition, the half-maximal effective concentration (EC50) in [6] was determined as 1.21 µM. The concentration for 50% growth inhibition (GI50) in [6] was 1.2 µM. The IC50 was found to be 1.21 µM in series [6], 3.9 µM in [12] (setting [17]) and 3.8 µM in series [16] (setting [17]). The “Relative cell count (%) Mean” value in series [6] (SW480, 3.00E+00 microM) was found to be 4.1%; in series [6] (SW480, 3.00E+01 microM), 0.4%; in [6] (SW480, 3.01E−01 microM), 93.5%; in [6] (SW480, 3.01E−02 microM), 99.5%; in series [6] (SW480, 3.02E−03 microM), 116.5%; in [6] (SW480, 9.49E+00 microM), 0.2%. Besides, the “Relative cell count (%) Mean” value was 69.9% in series [6] (SW480, 9.51E−01 microM); 94.1% in [6] (SW480, 9.52E−02 microM); 103.7% in series [6] (SW480, 9.53E−03 microM); 111.8% in series [6] (SW480, 9.55E−04 microM). Further, the “% Inhibition of Control Specific Binding” value in [9], in [12] (10 μM) and in [16] (10 μM) was “significant inhibitory activity” each time. Moreover, the remaining activity at 10 µM turned out to be 67% in [13] (setting [18]) and 73% in series [13] (setting [19]). The “inhibition of binding, 1st” value in [16] (3.0E−05M) is 102.3; in [16] (3.0E−06M), 8.4; in series [16] (3.0E−07M), −14.1; in [16] (3.0E−08M), −9.7; in series [16] (3.0E−09M) it was −6.0. The “inhibition of binding, 2nd” value in series [16] (3.0E−05M) was 102.3; in series [16] (3.0E−06M), 11.3; in series [16] (3.0E−07M) it was −11.0; in series [16] (3.0E−08M) it was −14.6; in [16] (3.0E−09M), −8.6. Further, the “inhibition of binding, Mean” value in series [16] (3.0E−05M) is given as 102.3; in [16] (3.0E−06M), 9.9; in series [16] (3.0E−07M) it was −12.6; in series [16] (3.0E−08M), −12.1; in series [16] (3.0E−09M) it was −7.3.

With `CC(C)=CCC[C@H](C)[C@@H]1CC[C@@H](C)c2c1cc(C)c(O)c2O` [Compound 4, 7,8-dihydroxyserrulat-14-ene], in series [1], the inhibition at 1 µM is 31% and the inhibition at 10 µM was determined as 91%. For the same compound, in series [6], the EC50 worked out at 12.3 µM, the GI50 worked out at 12.3 µM and the IC50 is 12.3 µM.

In the case of `CC(C)=CCC[C@@H]1COc2c(C)cc(O)c3c2[C@H]1CC[C@H]3C` [Compound 3, 5,18-epoxy-8-hydroxyserrulat-14-ene], the inhibition at 10 µM was 3% in series [2]; 18% in [3]; 13% in series [5]; -15% in series [7]; 14% in series [8]; 22% in series [9]. Moreover, the inhibition at 10 µM was found to be 12% in series [11]; 18% in series [12] (10 μM); 13% in series [14]; 40% in series [15]; 1% in series [16] (10 μM). The “% Control Response” value in [4] is listed as −1%; in series [10] it was 3%. In addition, in series [13] (setting [19]), the remaining activity at 10 µM worked out at 66%.

For `CC(C)=CCC[C@@H]1C(O)Oc2c(C)cc(O)c3c2[C@H]1CC[C@H]3C` (stereo partly drawn) [Compound 2, 5,18-epoxyserrulat-14-en-8,18-diol], the inhibition at 1 µM in [1] came to 20%. For the same compound, the inhibition at 10 µM in [1] is 72%; in series [2] it was 3%; in [3], -17%; in [5], 18%; in series [7], -19%; in series [8], 50%. Moreover, the inhibition at 10 µM came to 28% in series [9]; 14% in series [11]; 19% in [12] (10 μM); 22% in series [14]; 29% in [15]; 43% in series [16] (10 μM). Moreover, the “% Control Response” value is recorded as −28% in series [4] and −1% in [10]. Also, the EC50 in series [6] is 10.1 µM. Also, in [6], the GI50 was 9.93 µM. Also, the half-inhibitory concentration (IC50) in [6] came out at 10.1 µM. For the same compound, the figures for the remaining activity at 10 µM in [13] (setting [18]) and in series [13] (setting [19]) were 24% and -5%, respectively.

For the compound `Nc1ncnc2c1ncn2[C@@H]1O[C@H](CSCC[C@H](N)C(=O)O)[C@@H](O)[C@H]1O` [SAH], in series [8] (read-out: Reference IC50), the IC50 amounted to 0.86 µM.

As usually defined, the inhibition is the relative decrease from the control value, in per cent. In general, EC50 refers to the concentration at which the effect is half-maximal. By GI50 is commonly meant the concentration giving 50% growth inhibition. The IC50 is the concentration needed to halve the response being measured.
